Measurements reported in publication PMC7555839 (Frontiers in Microbiology, 2020).
Like-named read-outs stand apart in the source and are kept apart here.

Experiments:
[1] = test system: S. aureus CC398 (in house strain); experiment: Broth microdilution (MIC/MBC); assay type: cell-based; conditions: Staphylococcus aureus; CC398, veterinary clinical isolate
[2] = test system: Staphylococcus epidermidis RP62a; experiment: Broth microdilution (MIC/MBC); assay type: cell-based; conditions: human clinical isolate
[3] = test system: Escherichia coli E2 (in house strain); experiment: Broth microdilution (MIC/MBC); assay type: cell-based; conditions: E2, human clinical isolate
S. aureus ATCC BAA-1556 = experiment: Broth microdilution with 20% human serum; assay type: cell-based, Staphylococcus aureus
Protocol: (§1) In addition, whether serum proteins affected the activity of JBC 1847 against three S. aureus strains (USA300 JE2, ATCC BAA-1556 and CC398 in house strain) was investigated. Broth microdilution assays analog to previously described, with a 20% human serum (Sigma-Aldrich, Brøndby, Denmark) concentration were carried for three S. aureus strains (Table 1). MIC and MBC values were determined as previously described.

[4] = test system: S. aureus CC398 in house strain; experiment: Broth microdilution with 20% human serum; assay type: cell-based, Staphylococcus aureus
Protocol: as §1

S. aureus USA300 JE2 [5] = experiment: Broth microdilution with 20% human serum; assay type: cell-based, Staphylococcus aureus
Protocol: as §1

S. aureus USA300 JE2 [6] = experiment: Growth and viability assay; assay type: cell-based, Staphylococcus aureus; conditions: for Bacterial concentration after 24 h: 0.5 × MIC
Protocol: Growth and viability assays were performed according to a previously published method ([Thorsing et al., 2013]), with some modifications. In general, the assay was conducted over a 24 h period in a 37°C heating bath with shaking, using S. aureus USA300 JE2 as test strain. […] The culture was diluted 1:100 in BHI broth and grown to early exponential phase (OD600 0.20). […] This culture was grown to OD600 0.20 where sample zero was collected. […] 100 μl samples were serially diluted, spread on MHA plates, and incubated at 37°C for 20–24 h followed by successive counting.
Data were statically analyzed and visualized using RStudio v3.6.3 ([R Core Team, 2020]) and Microsoft excel. In general, the values reflecting the bacterial concentration (CFU/ml) were transformed into a logarithmic scale. In the growth and viability assay, the mean numbers of the bacterial concentrations from the triplicates were plotted against time and standard deviations shown as error bars. To investigate differences in bacterial concentration between treatment groups in the in vivo assay, multiple group comparisons were performed using ANOVA and P < 0.05 considered significant. The data was visualized in a standard box plot.

[7] = test system: Salmonella typhimurium TA98
[8] = test system: Salmonella typhimurium TA100
[9] = test system: Salmonella typhimurium TA1535
[10] = test system: Escherichia coli mutant [wp2 (pKM101)]
[11] = test system: Salmonella typhimurium TA1537; experiment: Ames test; conditions: for Mutagenicity ratio (MR): TA1537, 4 μg/well
S. aureus USA300 = experiment: Induced tolerance assay (23 days); conditions: for MIC: Staphylococcus aureus
[12] = 20% human serum vs assay without serum
[13] = Staphylococcus aureus, ATCCBAA1556, 20% human serum
[14] = Staphylococcus aureus, 20% human serum

Compound: CC(C)=CCCC(C)CC[N+](C)(C)CCCN1c2ccccc2Sc2ccccc21 (stereo not drawn) [JBC 1847]
- MBC [1]: 0.5 µg/mL
- MIC [1]: 0.5 µg/mL
- MIC [2]: 0.5 µg/mL
- MBC [3]: 8 µg/mL
- MIC [3]: 8 µg/mL
- Increase in MBC with human serum (S. aureus ATCC BAA-1556; [12]): 128 fold
- Increase in MIC with human serum (S. aureus ATCC BAA-1556; [12]): 128 fold
- MBC (S. aureus ATCC BAA-1556; [13]): 64 µg/mL
- MIC (S. aureus ATCC BAA-1556; [13]): 64 µg/mL
- Increase in MBC with human serum [4, 12]: 128 fold
- Increase in MIC with human serum [4, 12]: 128 fold
- MBC [4, 14]: 64 µg/mL
- MIC [4, 14]: 64 µg/mL
- Increase in MBC with human serum (S. aureus USA300 JE2 [5]; [12]): 128 fold
- Increase in MIC with human serum (S. aureus USA300 JE2 [5]; [12]): 128 fold
- MBC (S. aureus USA300 JE2 [5]; [14]): 64 µg/mL
- MIC (S. aureus USA300 JE2 [5]; [14]): 64 µg/mL
- Bacterial concentration after 24 h (S. aureus USA300 JE2 [6]; trial 1): approximately 10^3 CFU/ml
- Bacterial concentration after 24 h (S. aureus USA300 JE2 [6]; trial 2): 0 CFU/ml
- Bacterial concentration after 24 h (S. aureus USA300 JE2 [6]; trial 3, increase after 6 h): reached the same level as the control curve
- Viable bacterial cells after 30 min (S. aureus USA300 JE2 [6]; 4 × MIC, all three replicates): no viable bacterial cells
- Bacterial count after 24 h (S. aureus USA300 JE2 [6]; MIC concentration, trial 3): approximately 10^3 CFU/ml
- Bacterial concentration at 24 h (S. aureus USA300 JE2 [6]; MIC concentration, trials 1 and 2): 0 CFU/ml
- MIC (S. aureus USA300 JE2 [6]; Staphylococcus aureus, USA300, 100 ml BHI broth flasks, culture at OD600 0.20, 37°C shaking 20–22 h, read-out: MIC (visually determined)): 4 µg/mL
- Mean number of reverse mutated colonies ([7]; TA98, + S9, 1.5 μg/well): 11.00 ± 2.65
- Mean number of reverse mutated colonies ([7]; TA98, + S9, 4 μg/well): 11.33 ± 3.79
- Mean number of reverse mutated colonies ([7]; TA98, + S9, 10 μg/well): 13.67 ± 4.04
- Mean number of reverse mutated colonies ([7]; TA98, + S9, 64 μg/well): 0.0
- Mean number of reverse mutated colonies ([7]; TA98, −S9, 1.5 μg/well): 13.00 ± 2.00
- Mean number of reverse mutated colonies ([7]; TA98, −S9, 4 μg/well): 9.00 ± 2.00
- Mean number of reverse mutated colonies ([7]; TA98, −S9, 10 μg/well): 9.67 ± 3.51
- Mean number of reverse mutated colonies ([7]; TA98, −S9, 25 μg/well): 0.0
- Mean number of reverse mutated colonies ([7]; TA98, −S9, 64 μg/well): 0.0
- Mean number of reverse mutated colonies ([8]; TA100, + S9, 1.5 μg/well): 21.33 ± 2.08
- Mean number of reverse mutated colonies ([8]; TA100, + S9, 4 μg/well): 19.00 ± 5.29
- Mean number of reverse mutated colonies ([8]; TA100, + S9, 10 μg/well): 13.67 ± 1.53
- Mean number of reverse mutated colonies ([8]; TA100, + S9, 64 μg/well): 0.0
- Mean number of reverse mutated colonies ([8]; TA100, −S9, 1.5 μg/well): 24.33 ± 3.21
- Mean number of reverse mutated colonies ([8]; TA100, −S9, 4 μg/well): 26.67 ± 2.08
- Mean number of reverse mutated colonies ([8]; TA100, −S9, 10 μg/well): 18.00 ± 5.57
- Mean number of reverse mutated colonies ([8]; TA100, −S9, 25 μg/well): 0.0
- Mean number of reverse mutated colonies ([8]; TA100, −S9, 64 μg/well): 0.0
- Mean number of reverse mutated colonies ([9]; TA1535, + S9, 1.5 μg/well): 24.33 ± 3.21
- Mean number of reverse mutated colonies ([9]; TA1535, + S9, 4 μg/well): 26.67 ± 2.08
- Mean number of reverse mutated colonies ([9]; TA1535, + S9, 10 μg/well): 18.00 ± 5.57
- Mean number of reverse mutated colonies ([9]; TA1535, + S9, 64 μg/well): 0.0
- Mean number of reverse mutated colonies ([9]; TA1535, −S9, 1.5 μg/well): 24.33 ± 3.21
- Mean number of reverse mutated colonies ([9]; TA1535, −S9, 4 μg/well): 26.67 ± 2.08
- Mean number of reverse mutated colonies ([9]; TA1535, −S9, 10 μg/well): 18.00 ± 5.57
- Mean number of reverse mutated colonies ([9]; TA1535, −S9, 25 μg/well): 0.0
- Mean number of reverse mutated colonies ([9]; TA1535, −S9, 64 μg/well): 0.0
- Mean number of reverse mutated colonies ([10]; + S9, 1.5 μg/well): 51.33 ± 12.86
- Mean number of reverse mutated colonies ([10]; + S9, 4 μg/well): 40.67 ± 9.07
- Mean number of reverse mutated colonies ([10]; + S9, 10 μg/well): 40.67 ± 13.32
- Mean number of reverse mutated colonies ([10]; + S9, 25 μg/well): 9.67 ± 2.08
- Mean number of reverse mutated colonies ([10]; + S9, 64 μg/well): 0.0
- Mean number of reverse mutated colonies ([10]; −S9, 1.5 μg/well): 33.00 ± 2.65
- Mean number of reverse mutated colonies ([10]; −S9, 4 μg/well): 39.33 ± 5.69
- Mean number of reverse mutated colonies ([10]; −S9, 10 μg/well): 17.33 ± 7.09
- Mean number of reverse mutated colonies ([10]; −S9, 64 μg/well): 0.0
- Mutagenicity ratio (MR) ([11]; absence of S9): above 2
- Mutagenicity ratio (MR) ([11]; presence of S9): above 2
- Mean number of reverse mutated colonies ([11]; TA1537, + S9, 1.5 μg/well): 2.00 ± 2.65
- Mean number of reverse mutated colonies ([11]; TA1537, + S9, 10 μg/well): 0.33 ± 0.58
- Mean number of reverse mutated colonies ([11]; TA1537, + S9, 64 μg/well): 0.0
- Mean number of reverse mutated colonies ([11]; TA1537, −S9, 1.5 μg/well): 5.00 ± 1.00
- Mean number of reverse mutated colonies ([11]; TA1537, −S9, 64 μg/well): 0.0
- MIC (S. aureus USA300; USA300, 24 h, read-out: MIC Day 1): 0.5 µg/mL
- MIC (S. aureus USA300; USA300, 96 h, read-out: Highest MIC): 3.5 µg/mL
- MIC (S. aureus USA300; USA300, 96 h, read-out: MIC values after day 4): 1 to 2.5 µg/mL
- MIC (S. aureus USA300; USA300, 552 h, read-out: MIC Day 23): 3.5 µg/mL
- Increase in MIC (S. aureus USA300; tolerance assay, during the 23 days): 7 fold
